This is an account of results in US10076519B2 (CYTOKINETICS, INC., priority 2010, dated 2018).

The first assay deals with rabbit skeletal myofibrils (fast skeletal myofibrils). The experiment in a line: Activation of fast skeletal myofibrils (PUMA assay, PK/LDH-coupled ATPase at pCa25). The following applies: AC1.4 determined according to the procedure of Example 39; reported as class symbols. Type of assay: biochemical. In short, it runs like this: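 ATPase activity of Triton-washed rabbit skeletal myofibrils, roughly 90% fast fibres, tracked by NADH loss at 340 nm through a PK/LDH-coupled ADP-regenerating system. Calcium set to 25% of maximal activity (pCa25), in PIPES 12 mM pH 6.8 with 2 mM MgCl2 and 1 mM DTT; AC1.4 reported.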
Take `CC(C)(CNc1nnc(-c2cccc(C(N)=O)c2)cc1C(N)=O)c1ccc(F)cc1` [6-(3-carbamoylphenyl)-3-{[2-(4-fluorophenyl)-2-methylpropyl]amino}pyridazine-4-carboxamide]: the “Mean AC1.4” value is “B (B=1-10 uM)”.

For `CC(C)(CNc1ccc(-c2ccc3[nH]c(=O)[nH]c(=O)c3c2)nn1)c1ccc(F)cc1` [6-(6-{[2-(4-fluorophenyl)-2-methylpropyl]amino}pyridazin-3-yl)-1,3-dihydroquinazoline-2,4-dione], the “Mean AC1.4” value is reported as “B (B=1-10 uM)”.

Turning to `CC(C)(CNc1ccc(-c2ccc3[nH]c(=O)c(=O)[nH]c3c2)nn1)c1ccc(F)cc1` [6-(6-{[2-(4-fluorophenyl)-2-methylpropyl]amino}pyridazin-3-yl)-1,4-dihydroquinoxaline-2,3-dione], the “Mean AC1.4” value was “A (A=<1 uM)”.

`CC(C)(CNc1ccc(-c2ccc3c(c2)NC(=O)C3(C)C)nn1)c1ccc(F)cc1` [6-(6-{[2-(4-fluorophenyl)-2-methylpropyl]amino}pyridazin-3-yl)-3,3-dimethylindolin-2-one]: the “Mean AC1.4” value was “D (D=>20 uM)”.

In the case of `CC(C)(CNc1ccc(-c2cccc(O)n2)nn1)c1ccc(F)cc1` [6-(6-{[2-(4-fluorophenyl)-2-methylpropyl]amino}pyridazin-3-yl)pyridin-2-ol], the “Mean AC1.4” value was “B (B=1-10 uM)”.

`CC(C)(CNc1ccc(-c2ccc(O)cn2)nn1)c1ccc(F)cc1` [6-(6-{[2-(4-fluorophenyl)-2-methylpropyl]amino}pyridazin-3-yl)pyridin-3-ol]: the “Mean AC1.4” value is “A (A=<1 uM)”.

As for `CC(C)(CNc1ccc(-c2cccc(C(N)=O)n2)nn1)c1ccc(F)cc1` [6-(6-{[2-(4-fluorophenyl)-2-methylpropyl]amino}pyridazin-3-yl)pyridine-2-carboxamide], the “Mean AC1.4” value is reported as “B (B=1-10 uM)”.

As to `CC(C)(CNc1ccc(-c2ccc(C(N)=O)cn2)nn1)c1ccc(F)cc1` [6-(6-{[2-(4-fluorophenyl)-2-methylpropyl]amino}pyridazin-3-yl)pyridine-3-carboxamide], the “Mean AC1.4” value is “B (B=1-10 uM)”.

Consider `Oc1cccc(C2(CNc3ccc(-c4ccc5[nH]ncc5c4)nn3)CCC2)n1` [6-({[(6-(1H-indazol-5-yl)pyridazin-3-yl)amino]methyl}cyclobutyl) pyridin-2-ol], for which the “Mean AC1.4” value is “D (D=>20 uM)”.

`Oc1cccc(C2(CNc3ccc(-c4ccc5cn[nH]c5c4)nn3)CCC2)n1` [6-({[(6-(1H-indazol-6-yl)pyridazin-3-yl)amino]methyl}cyclobutyl) pyridin-2-ol]: the “Mean AC1.4” value is “D (D=>20 uM)”.

Take `CN1CCN(C(=O)c2ccc(NCC(C)(C)c3ccc(F)cc3)nn2)CC1` [6-{[2-(4-fluorophenyl)-2-methylpropyl]amino}pyridazin-3-yl 4-methylpiperazinyl ketone]: the “Mean AC1.4” value was “D (D=>20 uM)”.

As to `CC(C)(CNc1ccc(C(=O)N2CCOCC2)nn1)c1ccc(F)cc1` [6-{[2-(4-fluorophenyl)-2-methylpropyl]amino}pyridazin-3-yl morpholin-4-yl ketone], the “Mean AC1.4” value is on record as “D (D=>20 uM)”.

On to `CC(C)(CNc1ccc(C(=O)N2CCNCC2)nn1)c1ccc(F)cc1` [6-{[2-(4-fluorophenyl)-2-methylpropyl]amino}pyridazin-3-yl piperazinyl ketone], for which the “Mean AC1.4” value is “D (D=>20 uM)”.

As to `CC(C)(CNc1ccc(C#N)nn1)c1ccc(F)cc1` [6-{[2-(4-fluorophenyl)-2-methylpropyl]amino}pyridazine-3-carbonitrile], the “Mean AC1.4” value is reported as “D (D=>20 uM)”.

For `CC(C)(CNc1ccc(C(N)=O)nn1)c1ccc(F)cc1` [6-{[2-(4-fluorophenyl)-2-methylpropyl]amino}pyridazine-3-carboxamide], the “Mean AC1.4” value is given as “C (C=10-20 uM)”.

`CC(C)(CNc1ccc(C(=O)O)nn1)c1ccc(F)cc1` [6-{[2-(4-fluorophenyl)-2-methylpropyl]amino}pyridazine-3-carboxylic acid]: the “Mean AC1.4” value is recorded as “D (D=>20 uM)”.

The same assay, now with this note: median AC1.4 class, procedure of Example 39.
Take `N#Cc1ccc(NCC2(c3ncccc3F)CCC2)nn1` [6-((1-(3-Fluoropyridin-2-yl)cyclobutyl)methylamino)pyridazine-3-carbonitrile]: the “Mean AC1.4” value is given as “D (D=>20 uM)”.

Regarding `NC(=O)c1ccc(F)c(-c2ccc(NC3(c4cccc(C(N)=O)n4)CCC3)nn2)c1` [6-({[6-(3-carbamoyl-6-fluorophenyl)pyridazin-3-yl]amino}cyclobutyl)pyridine-2-carboxamide], the “Mean AC1.4” value is recorded as “D (D=>20 uM)”.

In the case of `NC(=O)c1csc2nc(-c3ccc(NC[C@]4(c5ncccc5F)C[C@H](F)C4)nn3)cn12` [6-[6-({[3-fluoro-1-(3-fluoro(2-pyridyl))cyclobutyl]methyl}ami-no)pyridazin-3-yl]imidazo[2,1-b]1,3-thiazoline-3-carboxamide], the “Mean AC1.4” value was “A (A=<1 uM)”.

As to `NC(=O)c1csc2nc(-c3ccc(NCC4(c5ncccc5F)CCC4)nn3)cn12` [6-[6-({[(3-fluoro-2-pyridyl)cyclobutyl]methyl}ami-no)pyridazin-3-yl]imidazo[2,1-b]1,3-thiazoline-3-carboxamide], the “Mean AC1.4” value is “A (A=<1 uM)”.

With `O=C(O)c1csc2nc(-c3ccc(NCC4(c5ncccc5F)CCC4)nn3)cn12` [6-[6-({[(3-fluoro-2-pyridyl)cyclobutyl]methyl}ami-no)pyridazin-3-yl]imidazo[2,1-b]1,3-thiazoline-3-carboxylic acid], the “Mean AC1.4” value was “A (A=<1 uM)”.

Take `N#Cc1cncc(-c2ccc(NCC3(c4ncccc4F)CCC3)nn2)n1` [6-[6-({[(3-fluoro-2-pyridyl)cyclobutyl]methyl}ami-no)pyridazin-3-yl]pyrazine-2-carbonitrile]: the “Mean AC1.4” value is “B (B=1-10 uM)”.

For `NC(=O)c1cncc(-c2ccc(NCC3(c4ncccc4F)CCC3)nn2)n1` [6-[6-({[(3-fluoro-2-pyridyl)cyclobutyl]methyl}ami-no)pyridazin-3-yl]pyrazine-2-carboxamide], the “Mean AC1.4” value is reported as “C (C=10-20 uM)”.

`NC(=O)c1cc(-c2ccc(NCC3(c4ncccc4F)CCC3)nn2)ncn1` [6-[6-({[(3-fluoro-2-pyridyl)cyclobutyl]methyl}ami-no)pyridazin-3-yl]pyrimidine-4-carboxamide]: the “Mean AC1.4” value is given as “B (B=1-10 uM)”.

The assay is the same for the next values; noted with them: median AC1.4 reported as class; procedure of Example 39.
Take `CC(C)(Nc1ccc(-c2cn3c(C(N)=O)csc3n2)nn1)c1ncccc1Cl` [6-(6-{[1-(3-chloro(2-pyridyl))-isopropyl]amino}pyridazin-3-yl)imidazo[2,1-b]1,3-thiazoline-3-carboxamide]: the “Mean AC1.4” value is on record as “B (B=1-10 uM)”.

Take `NC(=O)c1ccc(NCC2(c3ncccc3F)CCC2)nn1` [6-({[(3-fluoro-2-pyridyl)cyclobutyl]methyl}ami-no)pyridazine-3-carboxamide]: the “Mean AC1.4” value is “D (D=>20 uM)”.

`O=C(O)c1ccc(NCC2(c3ncccc3F)CCC2)nn1` [6-({[(3-fluoro-2-pyridyl)cyclobutyl]methyl}ami-no)pyridazine-3-carboxylic acid]: the “Mean AC1.4” value is on record as “D (D=>20 uM)”.

Consider `O=C1NCc2ccc(-c3ccc(NC[C@]4(c5ncccc5F)C[C@H](F)C4)nn3)cc21` [6-[6-({[3-fluoro-1-(3-fluoro(2-pyridyl))cyclobutyl]methyl}ami-no)pyridazin-3-yl]isoindolin-1-one], for which the “Mean AC1.4” value is “B (B=1-10 uM)”.

`O=c1cc(-c2ccc(NCC3(c4ncccc4F)CCC3)nn2)nc2[nH]ccn12` [7-[6-({[(3-fluoro-2-pyridyl)cyclobutyl]methyl}ami-no)pyridazin-3-yl]-4-hydro-4-imidazolino[1,2-a]pyrimidin-5-one]: the “Mean AC1.4” value is “B (B=1-10 uM)”.
